Measured values published in US7196192B2, “28-epirapalogs” (Ariad Gene Therapeutics, Inc., priority 1999, dated 2007).
pEC50, pIC50: −log10 of the molar value. “And” between values parts separate entries of the source, which are not always exact repeats. Identical values can stand only once. Like-named read-outs stand apart in the source and are kept apart here.

Legend:
FKBP = FKBP (Homo sapiens, UniProt P62942); assay: FKBP competitive binding assay based on fluorescence polarization (FP); settings: for pIC50 / IC50: competitive FP binding, methods of Example 2.5; for pIC50: read-out: FKBP IC50; for IC50: FKBP IC50 (nM)
Method: A Competitive Binding FP Assay is described in detail in WO99/36553 and WO96/41865. That assay permits the in vitro measurement of an IC50 value for a given compound which reflects its ability to bind to an FKBP-protein in competition with a labeled FKBP ligand, such as, for example, FK506.
(§1) A diverse group of C7-modified 28-epirapalogs were prepared as described in Example 4.

[1] = molecular target: T1, transcriptional switch components containing FKBP and 2098L mutant FRB domains (Homo sapiens, UniProt P42345+P62942); assay: transcription assay in engineered HD1080 cells expressing SEAP (txn 2098L); format: cell-based
T1 construct: transcriptional switchcomponents containing FKBP and 2098L mutant FRB domains, respectively; fused on or other part: The two switch components are separate chimeric proteins; Neither is given for this cell line
Source text: The ability of the rapalogs to multimerize chimeric proteins may be measured in cell-based assays by measuring the occurrence of an event triggered by such multimerization. For instance, one may use cells containing and capable of expressing DNA encoding a first chimeric protein comprising one or more FKBP-domains and one or more effector domains as well as DNA encoding a second chimeric protein containing an FRB domain and one or more effector domains capable, upon multimerization, of actuating a biological response. We prefer to use cells which further contain a reporter gene under the transcriptional control of a regulatory element (i.e., promoter) which is responsive to the multimerization of the chimeric proteins. The design and preparation of illustrative components and their use in so engineered cells is described in WO99/36553 and WO96/41865 and the other international patent applications referred to in this and the foregoing section. (See also W099/10510 for additional guidance on the design, assembly and delivery of nucleic acids to render cells and animals responsive to rapalogs of interest and for additional guidance on applications of such systems.) The cells are grown or maintained in culture. A rapalog is added to the culture medium and after a suitable incubation period (to permit gene expression and secretion, e.g. several hours or overnight) the presence of the reporter gene product is measured. Positive results, i.e., multimerization, correlates with transcription of the reporter gene as observed by the appearance of the reporter gene product. The reporter gene product may be a conveniently detectable protein (e.g. by ELISA) or may catalyze the production of a conveniently detectable product (e.g. colored). Materials and methods for producing appropriate cell lines for conducting such assays are disclosed in the international patent applications cited above in this section.
2. EC50 values of the various compounds was measured in a transcription assay using genetically engineered HD1080 cells which constitutively express transcriptional switch components containing FKBP and 2098L mutant FRB domains, respectively and which regulatably express secreted alkaline phosphatase (SEAP) in the presence of a compound which multimerizes the switch components. The assay is a literature assay. See WO 99/36553, e.g. Example 12, pages 120–121 (& FIG. 2D) […]

murine splenocyte = murine splenocyte assay for immunosuppressive activity; format: cell-based; settings: for pIC50: read-out: Splenocyte IC50; for immunosuppressive activity compared with rapamycin: splenocyte proliferation assay, versus rapamycin
Method: 3. Conventional murine splenocyte assay for immunosuppressive activity.
as §1

[2] = cellular transcription assay, methods of Example 2.5; read-out: TXN 2098L EC50
[3] = mouse splenocyte assay, methods of Example 2.5
[4] = read-out: TXN 2098L EC50; cellular transcription assay, methods of Example 2.5
[5] = Mus musculus, Splenocyte, mouse splenocyte assay, methods of Example 2.5
[6] = Mus musculus, Splenocyte, murine splenocyte assay, immunosuppressive activity

Chain of FKBP (P62942 whole entry): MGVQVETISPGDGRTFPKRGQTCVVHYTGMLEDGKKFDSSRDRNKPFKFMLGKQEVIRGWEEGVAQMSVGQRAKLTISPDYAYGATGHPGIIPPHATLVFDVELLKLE
T1 sequence (P62942 2-108 limits assumed, stated change not applied, other chains not shown): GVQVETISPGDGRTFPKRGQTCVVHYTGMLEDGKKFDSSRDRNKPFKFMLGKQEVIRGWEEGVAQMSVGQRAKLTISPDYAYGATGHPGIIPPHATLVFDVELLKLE

pIC50 (FKBP) | pIC50 (murine splenocyte; [3]) | Compound | pEC50 [1, 2] | other results
8.34 | 6.19 | COc1ccccc1COC1CC2CCC(C)C(O)(O2)C(=O)C(=O)N2CCCCC2C(=O)OC(C(C)CC2CCC(O)C(OC)C2)CC(=O)C(C)C=C(C)C(O)C(OC)C(=O)C(C)CC(C)C=CC=CC=C1C (single isomer, unassigned) [28-epi-7R-2′-methoxybenzyloxy] | 7.62 | –
6.96 | 6.23 | COC1CC(CC(C)C2CC(=O)C(C)C=C(C)C(O)C(OC)C(=O)C(C)CC(C)C=CC=CC=C(C)C(N(C)C(=O)OCC(C)C)CC3CCC(C)C(O)(O3)C(=O)C(=O)N3CCCCC3C(=O)O2)CCC1O (single isomer, unassigned) [28-epi-7R-N-Me-isobutylcarbamate] | 7.82 | –
6.83 | 5.86 | CCCS(=O)(=O)N(C)C1CC2CCC(C)C(O)(O2)C(=O)C(=O)N2CCCCC2C(=O)OC(C(C)CC2CCC(O)C(OC)C2)CC(=O)C(C)C=C(C)C(O)C(OC)C(=O)C(C)CC(C)C=CC=CC=C1C (single isomer, unassigned) [28-epi-7R-N-Me-propanesulfonamide] | 8.05 | –
6.92 | 6.59 | CCOC(=O)N(C)C1CC2CCC(C)C(O)(O2)C(=O)C(=O)N2CCCCC2C(=O)OC(C(C)CC2CCC(O)C(OC)C2)CC(=O)C(C)C=C(C)C(O)C(OC)C(=O)C(C)CC(C)C=CC=CC=C1C (single isomer, unassigned) [28-epi-7R-N-methyl-ethylcarbamate] | 8.05 | –
8.04 | 6.50 | COC1CC(CC(C)C2CC(=O)C(C)C=C(C)C(O)C(OC)C(=O)C(C)CC(C)C=CC=CC=C(C)C(OCc3ccccc3)CC3CCC(C)C(O)(O3)C(=O)C(=O)N3CCCCC3C(=O)O2)CCC1O (single isomer, unassigned) [28-epi-7R-benzyloxy] | 7.85 | –
7.48 | 7.60 | COc1ccccc1COC1CC2CCC(C)C(O)(O2)C(=O)C(=O)N2CCCCC2C(=O)OC(C(C)CC2CCC(O)C(OC)C2)CC(=O)C(C)C=C(C)C(O)C(OC)C(=O)C(C)CC(C)C=CC=CC=C1C (single isomer, unassigned) [28-epi-7S-2′-methoxybenzyloxy] | 7.82 | –
7.72 | 5.86 | COC1CC(CC(C)C2CC(=O)C(C)C=C(C)C(O)C(OC)C(=O)C(C)CC(C)C=CC=CC=C(C)C(N(C)C(=O)OCC(C)C)CC3CCC(C)C(O)(O3)C(=O)C(=O)N3CCCCC3C(=O)O2)CCC1O (single isomer, unassigned) [28-epi-7S-N-Me-isobutylcarbamate] | 7.40 | –
– | – | CO[C@@H]1C[C@H](C[C@@H](C)[C@@H]2CC(=O)[C@H](C)/C=C(\C)[C@H](O)[C@@H](OC)C(=O)[C@H](C)C[C@H](C)/C=C/C=C/C=C(\C)[C@H](Oc3ccccc3C)C[C@@H]3CC[C@@H](C)[C@@](O)(O3)C(=O)C(=O)N3CCCC[C@H]3C(=O)O2)CC[C@H]1O [28-epi-7R-2′-methylphenyloxy] | – | IC50 (FKBP): 8.1 nM; pEC50 [1, 4]: 8.10; TXN 2098L peak relative to rapamycin peak ([1]; superscript mark on EC50 cell): (+) (peak was >125% rapamycin peak)
– | – | CCOC1CC2CCC(C)C(O)(O2)C(=O)C(=O)N2CCCCC2C(=O)OC(C(C)CC2CCC(O)C(OC)C2)CC(=O)C(C)C=C(C)C(O)C(OC)C(=O)C(C)CC(C)C=CC=CC=C1C (stereo not drawn) [28-epi-7R-ethoxy] | 7.48 | –
– | – | CO[C@@H]1C[C@H](C[C@@H](C)[C@@H]2CC(=O)[C@H](C)/C=C(\C)[C@H](O)[C@@H](OC)C(=O)[C@H](C)C[C@H](C)/C=C/C=C/C=C(\C)[C@@H](Oc3ccccc3C)C[C@@H]3CC[C@@H](C)[C@@](O)(O3)C(=O)C(=O)N3CCCC[C@H]3C(=O)O2)CC[C@H]1O [28-epi-7S-2′-methylphenyloxy] | – | IC50 (FKBP): 17 nM; pEC50 [1, 4]: 7.85
– | – | CO[C@@H]1C[C@H](C[C@@H](C)[C@@H]2CC(=O)[C@H](C)/C=C(\C)[C@H](O)[C@@H](OC)C(=O)[C@H](C)C[C@H](C)/C=C/C=C/C=C(\C)[C@@H](N(C)S(=O)(=O)N(C)c3ccccc3)C[C@@H]3CC[C@@H](C)[C@@](O)(O3)C(=O)C(=O)N3CCCC[C@H]3C(=O)O2)CC[C@H]1O [28-epi-7S-N-Me-methylphenylsulfamide] | 7.59 | –
– | – | COC1CC(CC(C)C2CC(=O)C(C)C=C(C)C(O)C(OC)C(=O)C(C)CC(C)C=CC=CC=C(C)C(OCCC3CCCCC3)CC3CCC(C)C(O)(O3)C(=O)C(=O)N3CCCCC3C(=O)O2)CCC1O (stereo not drawn) [28-epi-7S-cyclohexylethyloxy] | 7.12 | –
– | – | CCOC1CC2CCC(C)C(O)(O2)C(=O)C(=O)N2CCCCC2C(=O)OC(C(C)CC2CCC(O)C(OC)C2)CC(=O)C(C)C=C(C)C(O)C(OC)C(=O)C(C)CC(C)C=CC=CC=C1C (stereo not drawn) [28-epi-7S-ethoxy] | 7.82 | IC50 (murine splenocyte; Mus musculus, Splenocyte, read-out: Splenocyte IC50 (nM)): 801 nM
7.31 | – | CO[C@@H]1C[C@H](C[C@@H](C)[C@@H]2CC(=O)[C@H](C)/C=C(\C)[C@H](O)[C@@H](OC)C(=O)[C@H](C)C[C@H](C)/C=C/C=C/C=C(\C)[C@@H](OC(C)C)C[C@@H]3CC[C@@H](C)[C@@](O)(O3)C(=O)C(=O)N3CCCC[C@H]3C(=O)O2)CC[C@H]1O [28-epi-7S-isopropyloxy] | 7.54 | –
– | – | CO[C@H]1C[C@@H]2CC[C@@H](C)[C@@](O)(O2)C(=O)C(=O)N2CCCCC2C(=O)O[C@H]([C@H](C)C[C@@H]2CC[C@@H](O)[C@H](OC)C2)CC(=O)[C@H](C)/C=C(\C)[C@H](O)[C@@H](OC)C(=O)[C@H](C)C[C@H](C)/C=C/C=C/C=C/1C (stereo partly shown) [28-epirapamycin] | – | affinity towards FKBP, times weaker than that of rapamycin (FKBP; fluorescence polarization competition assay, versus rapamycin): about 5 times; pIC50 (murine splenocyte; [5]): 8.46 to 9.05; pIC50 (murine splenocyte; [6]): 8.46 to 9.05; immunosuppressive activity compared with rapamycin (murine splenocyte): less potent immunosuppressive activity; immunosuppressive activity compared with rapamycin (murine splenocyte; listed as 2): more than an order of magnitude reduced
– | – | CO[C@H]1C[C@@H]2CC[C@@H](C)[C@@](O)(O2)C(=O)C(=O)N2CCCCC2C(=O)O[C@H]([C@H](C)C[C@@H]2CC[C@@H](O)[C@H](OC)C2)CC(=O)[C@H](C)/C=C(\C)[C@@H](O)[C@@H](OC)C(=O)[C@H](C)C[C@H](C)/C=C/C=C/C=C/1C (stereo partly shown) [rapamycin, reference compound] | – | pIC50 (murine splenocyte; [5]): 9.52 to 10.00; pIC50 (murine splenocyte; [6]): 9.52 to 10.00

Compound | pIC50 (FKBP) | pIC50 (murine splenocyte; [3]) | pEC50 [1, 2] | other results
28-epi-7R-(3′-methyl)-but-4′-enyloxy | 7.89 | 5.50 | 7.46 | –
28-epi-7S-(3′-methyl)-but-4′-enyloxy | 7.57 | 6.14 | 7.80 | –
28-epi-7S-dimethylthiophene | 7.11 | 5.81 to 5.91 | 7.52 | –
CO[C@@H]1C[C@H](C[C@@H](C)[C@@H]2CC(=O)[C@H](C)/C=C(\C)[C@H](O)[C@@H](OC)C(=O)[C@H](C)C[C@H](C)/C=C/C=C/C=C(\C)[C@H](N(C)S(=O)(=O)N(C)C)C[C@@H]3CC[C@@H](C)[C@@](O)(O3)C(=O)C(=O)N3CCCC[C@H]3C(=O)O2)CC[C@H]1O [28-epi-7R-N-Me-dimethylsulfamide] | – | 6.19 | 8.10 | –
CO[C@@H]1C[C@H](C[C@@H](C)[C@@H]2CC(=O)[C@H](C)/C=C(\C)[C@H](O)[C@@H](OC)C(=O)[C@H](C)C[C@H](C)/C=C/C=C/C=C(\C)[C@H](N(C)S(=O)(=O)N(C)c3ccccc3)C[C@@H]3CC[C@@H](C)[C@@](O)(O3)C(=O)C(=O)N3CCCC[C@H]3C(=O)O2)CC[C@H]1O [28-epi-7R-N-Me-methylphenylsulfamide] | 7.13 | – | 8.10 | –
COC1CC(CC(C)C2CC(=O)C(C)C=C(C)C(O)C(OC)C(=O)C(C)CC(C)C=CC=CC=C(C)C(SC(C)C)CC3CCC(C)C(O)(O3)C(=O)C(=O)N3CCCCC3C(=O)O2)CCC1O (stereo not drawn) [28-epi-7S-isopropylthioether] | 7.82 and 7.68 | – | – | TXN 2098L peak relative to rapamycin peak ([1]; superscript mark on EC50 cell): (+) (peak was >125% rapamycin peak)
